The record followed here is patent US20250197368A1 (priority 2020, published 2025).

Usually Ki stands for the dissociation constant of the complex between target and ligand, obtained from inhibition or displacement.

Experiment [1] addresses human α2β3γ2 GABAARs (benzodiazepine site) (Homo sapiens (Human), UniProt P18507+P47869). The experiment can be described thus: In vitro radioligand binding assay ([3H]Ro15-1788 displacement), α2-GABAAR Ki. The method, boiled down: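 Membranes from dexamethasone-induced mouse L(tk−) cells stably expressing the human receptor were incubated 1 h at 4° C with 4 nM [3H]Ro15-1788 and graded compound; nonspecific binding with 1-3 μM TP003. Filter-bound radioactivity counted; Ki from IC50 by Cheng-Prusoff using the measured radioligand Kd.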

Experiment [2] deals with human α3β3γ2 GABAARs (benzodiazepine site) (Homo sapiens (Human), UniProt P18507+P34903). As to the kind of experiment: In vitro radioligand binding assay ([3H]Ro15-1788 displacement), α3-GABAAR Ki. The conditions noted are these: L(tk-) cell membranes, 4 nM [3H]Ro15-1788. On the procedure: The affinity (Ki) of compounds for the benzodiazepine site of human recombinant GABAARs was measured by their ability to inhibit the binding of the selective benzodiazepine antagonist [^3H]Ro15-1788 ([^3H] flumazenil).
Mouse L(tk^−) cells stably expressing human α1β3γ2, α2β3γ2, α3β3γ2, α5β3γ2 GABAARs were generated by transfection of the individual subunits in the dexamethasone-inducible expression vector pMSGneo in mouse L(tk^−) cells (Hadingham et al., 1993, Mol. Pharmacol. 43:970-975 and 1993, Mol. Pharmacol. 44:1211-1218).
L(tk^−) cells stably expressing human α1β3γ2, α2β3γ2, α3β3γ2, α5β3γ2 GABAARs were maintained in DMEM F12 medium supplemented with 10% Foetal Bovine Serum, 1% Penicillin/Streptomycin and 1 mg/mL Geneticin G418 in an incubator at 37° C. with a humidified atmosphere with 5% CO2. Dexamethasone was added to the culture medium to induce GABAAR expression.
L(tk−) cells were harvested and membranes were prepared for each receptor combination in either TE buffer (10 mM Tris·CI/0.1 mM EDTA, pH 7.5) or phosphate buffer (K2PO4 10 mM, pH 7.0) (Hadingham et al. (1992) Proc. Natl. Acad. Sci. USA; 89 (14): 6378-82). Protein concentration, receptor expression and the Kd of [^3H]Ro15-1788 were determined before Ki value of the compounds were evaluated. For Kd evaluation, saturation binding curves were obtained by incubating membrane with various concentrations of [^3H]Ro15-1788 (82.5 Ci/mM), with nonspecific binding measured in the presence of 1-3 μM TP003.
For Ki evaluation, cell membranes were incubated with 4 nM [^3H]Ro15-1788 along with a range of concentrations of test compound. Nonspecific binding was determined using 1-3 μM TP003. All incubations were performed for 1 hour at 4° C. in assay buffer. The total assay volume was 0.5 mL, containing 40 μg/well α1β3γ2, 30 μg/well α2β3γ2, 40 μg/well α3β3γ2 and 30 μg/well for α5β3γ2 of membrane protein. Incubations were terminated by filtration and washing with ice cold Tris-HCl buffer (50 mM, pH=7.4) over Whatman GF/B filters and the radioactivity of the filters was measured using liquid scintillation counting.
The % inhibition of [^3H]Ro15-1788 binding was plotted as a function of compound concentration and the IC50 calculated. From the IC50, the affinity (Ki) was calculated using the method of Cheng and Prusoff using the Kd values obtained for [^3H]Ro15-1788.

For the next experiment, the system named is human α2β3γ2 GABAARs. The experiment can be described thus: In vitro electrophysiological recording assay (automated patch-clamp), α2-GABAAR relative efficacy. It is filed as cell-based. The conditions noted are these: % efficacy normalised to diazepam; GABA EC10-20; concentration generally >= 100 times Ki. In short, it runs like this: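 Automated whole-cell patch clamp at 20-22° C on L(tk^−) cells (QPatch, −65 mV) or HEK293 cells (SyncroPatch, −80 mV) stably expressing the human receptor. Compound pre-applied ≥1 min, then co-applied with GABA EC10-20; % potentiation of leak-corrected peak current, normalised to diazepam, typically at ≥100× Ki.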

Chain of human α2β3γ2 GABAARs (benzodiazepine site) (P47869 29-451): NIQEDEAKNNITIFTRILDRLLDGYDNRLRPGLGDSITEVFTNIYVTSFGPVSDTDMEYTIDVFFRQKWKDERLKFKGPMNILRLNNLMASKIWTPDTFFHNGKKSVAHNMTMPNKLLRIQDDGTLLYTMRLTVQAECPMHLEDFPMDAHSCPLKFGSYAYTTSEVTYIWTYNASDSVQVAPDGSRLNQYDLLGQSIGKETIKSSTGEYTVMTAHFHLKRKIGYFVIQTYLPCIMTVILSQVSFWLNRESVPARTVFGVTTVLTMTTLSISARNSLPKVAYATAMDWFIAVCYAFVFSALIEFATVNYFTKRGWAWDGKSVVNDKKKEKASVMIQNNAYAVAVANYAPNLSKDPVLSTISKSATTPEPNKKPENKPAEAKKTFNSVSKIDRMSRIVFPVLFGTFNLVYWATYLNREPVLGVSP
Chain of human α2β3γ2 GABAARs (benzodiazepine site) (P28472 26-473 partner): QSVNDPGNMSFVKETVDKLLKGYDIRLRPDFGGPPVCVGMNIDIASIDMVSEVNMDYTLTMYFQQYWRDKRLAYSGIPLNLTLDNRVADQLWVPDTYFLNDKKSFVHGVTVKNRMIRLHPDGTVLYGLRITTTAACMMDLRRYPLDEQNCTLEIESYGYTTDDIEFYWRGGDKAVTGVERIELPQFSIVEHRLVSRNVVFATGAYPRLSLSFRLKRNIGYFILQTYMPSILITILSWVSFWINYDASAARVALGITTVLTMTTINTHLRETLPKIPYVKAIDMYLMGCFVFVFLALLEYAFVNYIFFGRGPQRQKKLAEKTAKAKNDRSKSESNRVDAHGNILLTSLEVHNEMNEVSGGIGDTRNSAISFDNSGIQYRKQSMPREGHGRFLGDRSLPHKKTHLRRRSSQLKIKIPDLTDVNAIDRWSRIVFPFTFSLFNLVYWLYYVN
Chain of human α2β3γ2 GABAARs (benzodiazepine site) (P18507 40-475): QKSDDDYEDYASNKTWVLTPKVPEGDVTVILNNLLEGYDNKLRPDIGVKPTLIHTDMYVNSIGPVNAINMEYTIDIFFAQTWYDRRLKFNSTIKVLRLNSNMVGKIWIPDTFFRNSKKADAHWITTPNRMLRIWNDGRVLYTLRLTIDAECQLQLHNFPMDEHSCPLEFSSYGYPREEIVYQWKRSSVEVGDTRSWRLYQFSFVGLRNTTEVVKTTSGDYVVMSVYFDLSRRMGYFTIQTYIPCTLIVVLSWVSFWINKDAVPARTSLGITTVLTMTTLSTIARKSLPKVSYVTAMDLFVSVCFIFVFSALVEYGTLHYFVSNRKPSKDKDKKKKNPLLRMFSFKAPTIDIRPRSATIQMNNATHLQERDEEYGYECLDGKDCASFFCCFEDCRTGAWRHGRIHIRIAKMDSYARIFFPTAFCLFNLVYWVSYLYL

Consider `CCCNC(=O)c1c(N)c2cccc(-c3ccnn3C)c2[nH]c1=O` [Example 53, 4-Amino-8-(2-methylpyrazol-3-yl)-2-oxo-N-propyl-1H-quinoline-3-carboxamide], for which the inhibitory constant (Ki) in experiment [1] is 8.05 nM; in experiment [2] it was 18.4 nM. The “α2-GABAAR Relative Efficacy (vs. Diazepam)” value (shortened to “α2-GABAAR Relative Efficacy”) in the experiment on human α2β3γ2 GABAARs worked out at 0.17.

Take `CCCNC(=O)c1c(N)c2cccc(-c3cc(F)ccn3)c2[nH]c1=O` [Example 4, 4-Amino-8-(4-fluoro-2-pyridyl)-2-oxo-N-propyl-1H-quinoline-3-carboxamide]: the Ki in experiment [1] was 1.26 nM; in experiment [2] it was 1.65 nM. For the same compound, the “α2-GABAAR Relative Efficacy” value in the experiment on human α2β3γ2 GABAARs was 0.40.

On to `CCCNC(=O)c1c(N)c2cccc(-c3cc(OCc4cocn4)ccc3F)c2[nH]c1=O` [Example 121, 4-Amino-8-[2-fluoro-5-(oxazol-4-ylmethoxy)phenyl]-2-oxo-N-propyl-1H-quinoline-3-carboxamide], for which the Ki in experiment [1] was 0.3 nM; in experiment [2], 0.61 nM. In the experiment with human α2β3γ2 GABAARs, the “α2-GABAAR Relative Efficacy” value stood at 0.35.

Regarding `CCCNC(=O)c1c(N)c2cccc(-c3cc(OCc4cccc(C)n4)ccc3F)c2[nH]c1=O` [Example 88, 4-Amino-8-[2-fluoro-5-[(6-methyl-2-pyridyl)methoxy]phenyl]-2-oxo-N-propyl-1H-quinoline-3-carboxamide], the Ki in experiment [1] is 1.97 nM; in experiment [2], 1.37 nM. In addition, the “α2-GABAAR Relative Efficacy” value in the experiment on human α2β3γ2 GABAARs turned out to be 0.26.

As for `CCCNC(=O)c1c(N)c2cccc(-c3cc(OCc4nnc(C(F)(F)F)o4)ccc3F)c2[nH]c1=O` [Example 132, 4-Amino-8-[2-fluoro-5-[[5-(trifluoromethyl)-1,3,4-oxadiazol-2-yl]methoxy]phenyl]-2-oxo-N-propyl-1H-quinoline-3-carboxamide], the Ki in experiment [1] was 0.66 nM; in experiment [2], 1.19 nM. Moreover, the “α2-GABAAR Relative Efficacy” value in the experiment with human α2β3γ2 GABAARs came out at 0.24.

As to `CCCNC(=O)c1c(N)c2cccc(-c3cncc(OC)c3)c2[nH]c1=O` [Example 23, 4-Amino-8-(5-methoxy-3-pyridyl)-2-oxo-N-propyl-1H-quinoline-3-carboxamide], the figures for the inhibitory constant (Ki) in experiment [1] and in experiment [2] were 2.31 nM and 7.21 nM, respectively. Also, in the experiment with human α2β3γ2 GABAARs, the “α2-GABAAR Relative Efficacy” value is reported as 0.33.

On to `CCCNC(=O)c1c(N)c2cccc(-c3cc(OCc4csc(C)n4)ccc3F)c2[nH]c1=O` [Example 120, 4-Amino-8-(2-fluoro-5-((2-methylthiazol-4-yl)methoxy)phenyl)-2-oxo-N-propyl-1,2-dihydroquinoline-3-carboxamide], for which the Ki in experiment [1] amounted to 1.19 nM; in experiment [2] it was 1.18 nM. In addition, the “α2-GABAAR Relative Efficacy” value in the experiment with human α2β3γ2 GABAARs is on record as 0.21.

With `CCCNC(=O)c1c(N)c2cccc(-c3cc(CN4CCC5(CC4)CN(C)C5)ccc3F)c2[nH]c1=O` [Example 144, 4-Amino-8-(2-fluoro-5-((2-methyl-2,7-diazaspiro[3.5]nonan-7-yl)methyl)phenyl)-2-oxo-N-propyl-1,2-dihydroquinoline-3-carboxamide], the Ki in experiment [1] was 1.99 nM; in experiment [2] it was 5.43 nM. For the same compound, in the experiment with human α2β3γ2 GABAARs, the “α2-GABAAR Relative Efficacy” value is on record as 0.41.

`CCCNC(=O)c1c(N)c2cccc(-c3cncc(OC(C)C)c3)c2[nH]c1=O` [Example 27, 4-Amino-8-(5-isopropoxypyridin-3-yl)-2-oxo-N-propyl-1,2-dihydroquinoline-3-carboxamide]: the Ki in experiment [1] worked out at 22.7 nM; in experiment [2], 10.6 nM. Moreover, the “α2-GABAAR Relative Efficacy” value with human α2β3γ2 GABAARs worked out at 0.28.

Consider `CCCNC(=O)c1c(N)c2cccc(-c3cccc4c3OC(F)(F)O4)c2[nH]c1=O` [Example 51, 4-Amino-8-(2,2-difluoro-1,3-benzodioxol-4-yl)-2-oxo-N-propyl-1H-quinoline-3-carboxamide], for which the Ki in experiment [1] worked out at 1.71 nM; in experiment [2], 1.63 nM. Also, in the experiment with human α2β3γ2 GABAARs, the “α2-GABAAR Relative Efficacy” value was 0.31.

For the compound `CCCNC(=O)c1c(N)c2cccc(-c3cc(OCc4coc(C)n4)ccc3F)c2[nH]c1=O` [Example 122, 4-Amino-8-(2-fluoro-5-((2-methyloxazol-4-yl)methoxy)phenyl)-2-oxo-N-propyl-1,2-dihydroquinoline-3-carboxamide], the results for the Ki in experiment [1] and in experiment [2] were 0.89 nM and 3.56 nM, respectively. Moreover, the “α2-GABAAR Relative Efficacy” value with human α2β3γ2 GABAARs stood at 0.33.

For `CCCNC(=O)c1c(N)c2cccc(-c3nc(OC)ccc3F)c2[nH]c1=O` [Example 8, 4-Amino-8-(3-fluoro-6-methoxypyridin-2-yl)-2-oxo-N-propyl-1,2-dihydroquinoline-3-carboxamide], the Ki in experiment [1] was determined as 0.38 nM; in experiment [2], 0.19 nM. Further, the “α2-GABAAR Relative Efficacy” value in the experiment with human α2β3γ2 GABAARs is recorded as 0.24.

Regarding `CCCNC(=O)c1c(N)c2cccc(-c3nc(C(F)(F)F)ccc3C)c2[nH]c1=O` [Example 13, 4-Amino-8-[3-methyl-6-(trifluoromethyl)-2-pyridyl]-2-oxo-N-propyl-1H-quinoline-3-carboxamide], the Ki came out at 6.05 nM in experiment [1] and 7.6 nM in experiment [2]. For the same compound, the “α2-GABAAR Relative Efficacy” value in the experiment on human α2β3γ2 GABAARs worked out at 0.34.

Consider `CCCNC(=O)c1c(N)c2cccc(-c3cccnc3OC)c2[nH]c1=O` [Example 14, 4-Amino-8-(2-methoxypyridin-3-yl)-2-oxo-N-propyl-1,2-dihydroquinoline-3-carboxamide], for which the inhibitory constant (Ki) in experiment [1] was found to be 2.13 nM; in experiment [2] it was 6.02 nM. In the experiment on human α2β3γ2 GABAARs, the “α2-GABAAR Relative Efficacy” value was 0.45.

On to `CCCNC(=O)c1c(N)c2cccc(-c3ncccc3C)c2[nH]c1=O` [Example 5, 4-Amino-8-(3-methylpyridin-2-yl)-2-oxo-N-propyl-1,2-dihydroquinoline-3-carboxamide], for which the figures for the Ki in experiment [1] and in experiment [2] were 5.66 nM and 16.1 nM, respectively. Moreover, in the experiment on human α2β3γ2 GABAARs, the “α2-GABAAR Relative Efficacy” value turned out to be 0.42.

With `CCCNC(=O)c1c(N)c2cccc(-c3cccc(OC(F)F)n3)c2[nH]c1=O` [Example 2, 4-Amino-8-(6-(difluoromethoxy)pyridin-2-yl)-2-oxo-N-propyl-1,2-dihydroquinoline-3-carboxamide], the Ki in experiment [1] amounted to 3.33 nM; in experiment [2], 1.59 nM. Besides, the “α2-GABAAR Relative Efficacy” value in the experiment on human α2β3γ2 GABAARs was found to be 0.34.
